# Tested on: BoNT
# Type: biochemical, Clostridium botulinum
substance,measurement,value
(SNRTRIDQGNQRATRNleL)4K2KC(beta)A [Substrate 39],specific turnover over unspecific protease background cleavage reactions,shown to increase the specific turnover

# Reference: patent publication US7611856B2 (priority 2003, dated 2009)
